Data taken from US20060069132A1, “Azolecarboxamide herbicides” (priority 2004, published 2006).

Assays:
[1] = tested on: small flower umbrella sedge; experiment: Test B flooded paddy test; format: in vivo, Cyperus difformis; settings: 1000 g ai/ha, visual rating, scale 0 to 100 (0 no effect, 100 complete control), 13 to 15 days
Method in brief: (§1)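 Formulated test chemicals went onto postemergence plants measuring 2 to 18 cm, at one to four leaves. For the paddy assay, species had reached two leaves. Scoring took place 13–15 days later by eye, relative to untreated plants, using 0 for no effect up to 100 for full control.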

velvetleaf [2] = experiment: Test B pre-/postemergence herbicide test; format: in vivo, Abutilon theophrasti; settings: for Velvetleaf plant response rating: postemergence, visual rating, scale 0 (no effect) to 100 (complete control)
Method in brief: (§2)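 Plants compared with untreated controls 13–15 days post-treatment and given a visual 0–100 injury score. Applications: preemergence to seeds; postemergence at 1- to 4-leaf (2–18 cm); paddy species flooded, 2-leaf stage. Vehicle non-phytotoxic, surfactant included.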

large crabgrass [3] = experiment: Test B pre-/postemergence herbicide test; format: in vivo, Digitaria sanguinalis; settings: for Crabgrass, Large plant response rating: postemergence, visual rating, scale 0 (no effect) to 100 (complete control)
Method in brief: as §2

pigweed = experiment: Test B pre-/postemergence herbicide test; format: in vivo, Amaranthus retroflexus; settings: for Pigweed plant response rating: postemergence, visual rating, scale 0 (no effect) to 100 (complete control)
Method in brief: as §2

rice [4] = experiment: Test B pre-/postemergence herbicide test; format: in vivo, Oryza sativa; settings: preemergence
Method in brief: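 Greenhouse pot assay with simultaneous preemergence (treated seed) and postemergence (2–18 cm seedlings) applications of surfactant-containing, non-phytotoxic solvent formulations. Response scored visually 13–15 days later on a 0–100 scale, 100 meaning complete control.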

blackgrass = experiment: Test B postemergence herbicide test; format: in vivo, Alopecurus myosuroides; settings: postemergence, visual rating, scale 0 (no effect) to 100 (complete control)
Method in brief: as §1

wild oat = experiment: Test B postemergence herbicide test; format: in vivo, Avena fatua; settings: postemergence, visual rating, scale 0 (no effect) to 100 (complete control)
Method in brief: as §1

cocklebur = experiment: Test B pre-/postemergence herbicide test; format: in vivo, Xanthium strumarium; settings: for Cocklebur plant response rating: postemergence, visual rating, scale 0 (no effect) to 100 (complete control)
Method in brief: as §2

rice [5] = experiment: Test B flooded paddy test; format: in vivo, Oryza sativa; settings: 1000 g ai/ha, visual rating, scale 0 to 100 (0 no effect, 100 complete control), 13 to 15 days
Method in brief: as §1

ducksalad = experiment: Test B flooded paddy test; format: in vivo, Heteranthera limosa; settings: 1000 g ai/ha, visual rating, scale 0 to 100 (0 no effect, 100 complete control), 13 to 15 days
Method in brief: as §1

velvetleaf [6] = experiment: Test A pre-/postemergence herbicide test; format: in vivo, Abutilon theophrasti
Method in brief: (§3)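 Both application timings were run together: directed soil spray over freshly planted seeds in sandy loam, and runoff spray onto 2–10 cm seedlings. Evaluation after ~10 days in greenhouse used a 0–100 visual scale versus untreated controls.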

barnyardgrass [7] = experiment: Test A pre-/postemergence herbicide test; format: in vivo, Echinochloa crus-galli
Method in brief: as §3

giant foxtail [8] = experiment: Test B pre-/postemergence herbicide test; format: in vivo, Setaria faberi; settings: for Foxtail, Giant plant response rating: postemergence, visual rating, scale 0 (no effect) to 100 (complete control)
Method in brief: as §2

barnyardgrass [9] = experiment: Test B flooded paddy test; format: in vivo, Echinochloa crus-galli; settings: 1000 g ai/ha, visual rating, scale 0 to 100 (0 no effect, 100 complete control), 13 to 15 days
Method in brief: as §1

wheat = experiment: Test B postemergence herbicide test; format: in vivo, Triticum aestivum; design: key to Wheat plant response rating: 0 = no effect, 100 = complete control; settings: postemergence, visual rating, scale 0 (no effect) to 100 (complete control)
Method in brief: as §1

corn = experiment: Test B pre-/postemergence herbicide test; format: in vivo, Zea mays; settings: for Corn plant response rating: postemergence, visual rating, scale 0 (no effect) to 100 (complete control)
Method in brief: as §2

morningglory [10] = experiment: Test A pre-/postemergence herbicide test; format: in vivo, Ipomoea spp.
Method in brief: as §3

barnyardgrass [11] = experiment: Test B pre-/postemergence herbicide test; format: in vivo, Echinochloa crus-galli; settings: for Barnyardgrass plant response rating: postemergence, visual rating, scale 0 (no effect) to 100 (complete control)
Method in brief: as §2

large crabgrass [12] = experiment: Test A pre-/postemergence herbicide test; format: in vivo, Digitaria sanguinalis
Method in brief: as §3

lambsquarters = experiment: Test B pre-/postemergence herbicide test; format: in vivo, Chenopodium album; settings: for Lambsquarters plant response rating: postemergence, visual rating, scale 0 (no effect) to 100 (complete control)
Method in brief: as §2

morningglory [13] = experiment: Test B pre-/postemergence herbicide test; format: in vivo, Ipomoea coccinea; settings: for Morningglory plant response rating: postemergence, visual rating, scale 0 (no effect) to 100 (complete control)
Method in brief: as §2

redroot pigweed = experiment: Test A pre-/postemergence herbicide test; format: in vivo, Amaranthus retroflexus
Method in brief: as §3

giant foxtail [14] = experiment: Test A pre-/postemergence herbicide test; format: in vivo, Setaria faberi
Method in brief: as §3

Surinam grass = experiment: Test B pre-/postemergence herbicide test; format: in vivo, Urochloa decumbens; settings: for Surinam Grass plant response rating: postemergence, visual rating, scale 0 (no effect) to 100 (complete control)
Method in brief: as §2

[15] = 125 g ai/ha, 0 = no effect, 100 = complete control, preemergence
[16] = 500 g ai/ha, visual rating 0-100, 0 no effect, 100 complete control, preemergence
[17] = Postemergence, 500 g ai/ha, 0 to 100 scale, 0 no effect, 100 complete control
[18] = Postemergence, 2000 g ai/ha, 0 to 100 scale, 0 no effect, 100 complete control
[19] = Preemergence, 2000 g ai/ha, visual rating, 0 to 100 scale (0 no effect, 100 complete control)
[20] = preemergence, 500 g ai/ha, visual injury, 0 to 100 scale (0 no effect, 100 complete control)

CCc1nc(C(C)(C)C)sc1C(=O)Nc1cccc(C(=O)NCC(F)(F)F)c1 [Compound 206]
Sedge, Umbrella plant response rating [1]: 50 | Velvetleaf plant response rating (0 to 100 scale) (velvetleaf [2]; [15]): 0 | Plant response rating, Velvetleaf (velvetleaf [2]; [16]): 10 | Velvetleaf plant response rating (velvetleaf [2]; 125 g ai/ha): 20 | Velvetleaf plant response rating (velvetleaf [2]; 500 g ai/ha): 20 | Crabgrass, Large plant response rating (0 to 100 scale) (large crabgrass [3]; [15]): 10 | Plant response rating, Crabgrass, Large (large crabgrass [3]; [16]): 60 | Crabgrass, Large plant response rating (large crabgrass [3]; 125 g ai/ha): 10 | Crabgrass, Large plant response rating (large crabgrass [3]; 500 g ai/ha): 30 | Pigweed plant response rating (0 to 100 scale) (pigweed; [15]): 0 | Plant response rating, Pigweed (pigweed; [16]): 80 | Pigweed plant response rating (pigweed; 125 g ai/ha): 30 | Pigweed plant response rating (pigweed; 500 g ai/ha): 40 | Rice plant response rating (0 to 100 scale) (rice [4]; 125 g ai/ha, 0 = no effect, 100 = complete control): 0 | Plant response rating, Rice (rice [4]; 500 g ai/ha, visual rating 0-100, 0 no effect, 100 complete control): 30 | Blackgrass plant response rating (blackgrass; 125 g ai/ha): 0 | Blackgrass plant response rating (blackgrass; 500 g ai/ha): 20 | Oat, Wild plant response rating (wild oat; 125 g ai/ha): 20 | Oat, Wild plant response rating (wild oat; 500 g ai/ha): 20 | Cocklebur plant response rating (0 to 100 scale) (cocklebur; [15]): 0 | Plant response rating, Cocklebur (cocklebur; [16]): 0 | Cocklebur plant response rating (cocklebur; 125 g ai/ha): 20 | Cocklebur plant response rating (cocklebur; 500 g ai/ha): 40 | Rice plant response rating (rice [5]): 30 | Ducksalad plant response rating (ducksalad): 40 | Velvetleaf plant response rating (velvetleaf [6]; [17]): 5 | Plant response rating, Velvetleaf (velvetleaf [6]; [18]): 20 | Velvetleaf plant response rating (velvetleaf [6]; [19]): 10 | Velvetleaf plant response rating (velvetleaf [6]; [20]): 15 | Barnyardgrass plant response rating (barnyardgrass [7]; [17]): 5 | Plant response rating, Barnyardgrass (barnyardgrass [7]; [18]): 10 | Barnyardgrass plant response rating (barnyardgrass [7]; [19]): 60 | Barnyardgrass plant response rating (barnyardgrass [7]; [20]): 10 | Foxtail, Giant plant response rating (0 to 100 scale) (giant foxtail [8]; [15]): 0 | Plant response rating, Foxtail, Giant (giant foxtail [8]; [16]): 20 | Foxtail, Giant plant response rating (giant foxtail [8]; 125 g ai/ha): 20 | Foxtail, Giant plant response rating (giant foxtail [8]; 500 g ai/ha): 20 | Barnyardgrass plant response rating (barnyardgrass [9]): 10 | Wheat plant response rating (wheat; 125 g ai/ha): 20 | Wheat plant response rating (wheat; 500 g ai/ha): 20 | Corn plant response rating (0 to 100 scale) (corn; [15]): 0 | Plant response rating, Corn (corn; [16]): 40 | Corn plant response rating (corn; 125 g ai/ha): 20 | Corn plant response rating (corn; 500 g ai/ha): 20 | Morningglory plant response rating (morningglory [10]; [17]): 0 | Plant response rating, Morningglory (morningglory [10]; [18]): 0 | Morningglory plant response rating (morningglory [10]; [19]): 25 | Morningglory plant response rating (morningglory [10]; [20]): 5 | Barnyardgrass plant response rating (0 to 100 scale) (barnyardgrass [11]; [15]): 10 | Plant response rating, Barnyardgrass (barnyardgrass [11]; [16]): 70 | Barnyardgrass plant response rating (barnyardgrass [11]; 125 g ai/ha): 0 | Barnyardgrass plant response rating (barnyardgrass [11]; 500 g ai/ha): 10 | Crabgrass, Large plant response rating (large crabgrass [12]; [17]): 0 | Plant response rating, Crabgrass, Large (large crabgrass [12]; [18]): 5 | Crabgrass, Large plant response rating (large crabgrass [12]; [19]): 20 | Crabgrass, Large plant response rating (large crabgrass [12]; [20]): 20 | Lambsquarters plant response rating (0 to 100 scale) (lambsquarters; [15]): 0 | Plant response rating, Lambsquarters (lambsquarters; [16]): 30 | Lambsquarters plant response rating (lambsquarters; 125 g ai/ha): 30 | Lambsquarters plant response rating (lambsquarters; 500 g ai/ha): 80 | Morningglory plant response rating (0 to 100 scale) (morningglory [13]; [15]): 0 | Plant response rating, Morningglory (morningglory [13]; [16]): 20 | Morningglory plant response rating (morningglory [13]; 125 g ai/ha): 20 | Morningglory plant response rating (morningglory [13]; 500 g ai/ha): 20 | Pigweed plant response rating (redroot pigweed; [17]): 15 | Plant response rating, Pigweed (redroot pigweed; [18]): 20 | Pigweed plant response rating (redroot pigweed; [19]): 60 | Pigweed plant response rating (redroot pigweed; [20]): 25 | Foxtail, Giant plant response rating (giant foxtail [14]; [17]): 0 | Plant response rating, Foxtail, Giant (giant foxtail [14]; [18]): 0 | Foxtail, Giant plant response rating (giant foxtail [14]; [19]): 20 | Foxtail, Giant plant response rating (giant foxtail [14]; [20]): 0 | Surinam Grass plant response rating (0 to 100 scale) (Surinam grass; [15]): 0 | Plant response rating, Surinam Grass (Surinam grass; [16]): 20 | Surinam Grass plant response rating (Surinam grass; 125 g ai/ha): 10 | Surinam Grass plant response rating (Surinam grass; 500 g ai/ha): 20
